# Data reported in ChEMBL document CHEMBL4495565, “Cytopathic SARS-Cov2 screening on VERO-E6 cells in a large repurposing effort” (2020).
# Where “and” joins values, the source holds several entries; their conditions need not be identical. Identical values can stand only once. Counter-ions that a name gives are not always drawn.
# Key:
# SARS-CoV-2 = assay: microbe, parasite or virus in culture; type: functional, organism-based, Chlorocebus sabaeus, Vero C1008
# in vitro = details: chlorocebus sabaeus
# [1] = Severe acute respiratory syndrome coronavirus 2, Vero C1008, 48 h
# [2] = VERO-E6 cells (Vero C1008), uninfected, CC50
SMILES,CC50 at 48 h (in vitro; [2]),other results
c1ccc(-c2ccc(CNc3nc(-c4ccccn4)nnc3-c3ccccc3)cc2)cc1,0.02 µM,IC50 (SARS-CoV-2; [1]): 31.9 µM
CN1CCN(CC/C=C2\c3ccccc3Sc3ccc(S(=O)(=O)N(C)C)cc32)CC1,> 33 µM,–
Nc1ccc(C(=O)Nc2cccc(-c3nc(N4CCOCC4)c4oc5ncccc5c4n3)c2)cn1,0.01 µM,–
C/C=C/C[C@@H](C)C(=O)[C@H]1C(=O)N[C@@H](C(C)C)C(=O)N(C)CC(=O)N(C)[C@@H](CC(C)C)C(=O)N[C@@H](C(C)C)C(=O)N(C)[C@@H](CC(C)C)C(=O)N[C@@H](C)C(=O)N[C@H](C)C(=O)N(C)[C@@H](CC(C)C)C(=O)N(C)[C@@H](CC(C)C)C(=O)N(C)[C@@H](C(C)C)C(=O)N1C [VALSPODAR],13.4 µM,IC50 (SARS-CoV-2; [1]): > 33 µM
Cc1nc(N)nc(N)c1-c1ccc(Cl)c(Cl)c1 [METOPRINE],0.12 µM,–
CCCCn1c(NC(=O)c2cccs2)c(C#N)c2nc3ccccc3nc21,–,IC50 (SARS-CoV-2; [1]): 19.7 µM
Nc1c(C(=O)NCc2ccco2)c2nc3ccccc3nc2n1CCN1CCCCC1,> 33 µM,IC50 (SARS-CoV-2; [1]): 31.2 µM
CC(C)c1cccc2c(-c3ccccc3)cc(-c3ccc(-c4ccc(C(=O)O)cc4)[nH]3)nc12,> 33 µM,IC50 (SARS-CoV-2; [1]): > 33 µM
CC1=NN(c2ccc(C)c(C)c2)C(=O)/C1=N\Nc1cccc(-c2cccc(C(=O)O)c2)c1O [ELTROMBOPAG],3.26 µM,IC50 (SARS-CoV-2; [1]): > 33 µM
CC(=O)[C@]1(N)Cc2c(O)c3c(c(O)c2[C@@H](O[C@H]2C[C@H](O)[C@H](O)CO2)C1)C(=O)c1ccccc1C3=O [AMRUBICIN],> 33 µM,IC50 (SARS-CoV-2; [1]): 0.33 µM
Cc1[nH]c(/C=C2\C(=O)Nc3ccc(S(=O)(=O)Cc4c(Cl)cccc4Cl)cc32)c(C)c1C(=O)N1CCC[C@@H]1CN1CCCC1 [PHA-665752],> 33 µM,–
C/C(=C\c1ccc(C(=O)O)cc1)c1ccc2c(c1)C(C)(C)CCC2(C)C,4.07 µM,IC50 (SARS-CoV-2; [1]): > 33 µM
CC1=C(/C=C/C(C)=C/C=C/C(C)=C/C(=O)Nc2ccc(O)cc2)C(C)(C)CCC1 [FENRETINIDE],10.5 µM,IC50 (SARS-CoV-2; [1]): > 33 µM
CCN1CCN(Cc2ccc(-c3cc4c(N[C@H](C)c5ccccc5)ncnc4[nH]3)cc2)CC1 [AEE-788],> 33 µM,IC50 (SARS-CoV-2; [1]): 3.94 µM
CC(C)(Sc1cc(C(C)(C)C)c(O)c(C(C)(C)C)c1)Sc1cc(C(C)(C)C)c(OC(=O)CCC(=O)O)c(C(C)(C)C)c1 [SUCCINOBUCOL],10.2 µM,–
Cc1cc(O[C@@H](CCC(F)(F)F)c2ccc(C(=O)NCCC(=O)O)cc2)cc(C)c1-c1ccc(C(C)(C)C)cc1 [ADOMEGLIVANT],> 33 µM,–
O=C1OC2(c3ccc(O)cc3Oc3cc(O)ccc32)c2ccccc21 [FLUORESCEIN],> 33 µM,IC50 (SARS-CoV-2; [1]): 0.67 µM
Cc1ncc(NC(=O)c2ccc(CN3CCN(C)CC3)c(C(F)(F)F)c2)cc1Nc1nccc(-c2cccnc2)n1 [FLUMATINIB],> 33 µM,IC50 (SARS-CoV-2; [1]): > 33 µM
Cc1cccc(Nc2nc(-c3ccncc3)cs2)c1,31.5 µM,–
COc1cc2c(NC3CCN(C(C)C)CC3)nc(N3CCC(F)(F)CC3)nc2cc1OCCCN1CCCC1,> 33 µM,–
CC1(N2CCC(n3c([C@@H]4CCCNC4)nc4ccccc43)CC2)CCCCCCC1,> 33 µM,–
CCCCN(CCCC)CCC(O)c1cc2c(Cl)cc(Cl)cc2c2cc(C(F)(F)F)ccc12 (configuration not stated) [HALOFANTRINE],> 33 µM,–
O=S(=O)(NCC1CC1)c1ccc(Nc2nccc(N3CCCc4cc(O)ccc43)n2)cc1,0.74 µM,–
CC(C)n1cnc2c(NCCc3ccc(O)cc3)nc(-c3csc4ccccc34)nc21,12.6 µM,IC50 (SARS-CoV-2; [1]): > 33 µM
CCN(CC)c1ccc2cc(-c3nc4ccccc4[nH]3)c(=O)oc2c1,> 33 µM,IC50 (SARS-CoV-2; [1]): 0.36 µM
CCc1c(-c2ccc3[nH]ncc3c2)cnc(N)c1-c1ccc(O)cc1,> 33 µM,IC50 (SARS-CoV-2; [1]): > 33 µM

SMILES,CC50 at 48 h (in vitro; [2]),other results
CCN(CC)CCOc1ccc2c(c1)C(=O)c1cc(OCCN(CC)CC)ccc1-2 [TILORONE],3.08 µM,–
CC(C)C[C@H](NC(=O)CNC(=O)c1cc(Cl)ccc1Cl)B(O)O [IXAZOMIB],2.7 µM,IC50 (SARS-CoV-2; [1]): > 33 µM
O=C(Nc1ccc(Cl)c(Cl)c1)Nc1ccc(Cl)c(Cl)c1,> 33 µM,–
COc1ccc2c(c1)[C@]1(C[C@H]1c1ccc3c(/C=C/c4ccc(CN5C[C@@H](C)O[C@@H](C)C5)cc4)n[nH]c3c1)C(=O)N2 [OCIFISERTIB],> 33 µM,–
CCN(CC)CCOc1ccc(C(=C(Cl)c2ccccc2)c2ccccc2)cc1 [CLOMIPHENE CITRATE],–,"CC50 at 48 h (in vitro; vero c1008, CC50): > 33 µM"
CCN(CC)CCCCNc1ncc2cc(-c3c(Cl)cccc3Cl)c(NC(=O)NC(C)(C)C)nc2n1,12.7 µM,IC50 (SARS-CoV-2; [1]): > 33 µM
CC(C)(O)CNc1ncc(-c2ccnc(Nc3ccnc(Cl)c3)n2)c(CC2CC2)n1,26.8 µM,–
O=[N+]([O-])c1ccc(NN=Cc2sc(N3CCOCC3)nc2-c2ccccc2)c(S(=O)(=O)Nc2ccccc2Cl)c1,0.43 µM,–
N#Cc1cccc(C#N)c1-c1nc2c3ccc(Cl)cc3c3ccccc3c2[nH]1,> 33 µM,–
N=C(Nc1ccc(I)cc1)NC1C2CC3CC(C2)CC1C3 (configuration not stated),> 33 µM,–
Cn1cc(-c2ccncc2)c(-c2ccc(OCc3ccc4ccccc4n3)cc2)n1 [MARDEPODECT],> 33 µM,–
CN1CCN(CCCN2c3ccccc3Sc3ccc(C(F)(F)F)cc32)CC1 [TRIFLUOPERAZINE HYDROCHLORIDE],> 33 µM,–
COc1cc2c(N3CCN(C(=O)Nc4ccc(OC(C)C)cc4)CC3)ncnc2cc1OCCCN1CCCCC1 [TANDUTINIB],> 33 µM,–
O=C(Nc1ccc(Cl)cc1)Nc1ccc(Cl)c(Cl)c1 [TRICLOCARBAN],3.08 µM,–
Cn1nc(C(C)(C)C)cc1C(=O)N[C@@H](Cc1cccc(Cl)c1)C(=O)NCC#N,0.03 µM,–
Nc1nc2c(ncn2[C@@H]2O[C@H](CO)[C@@H](O)[C@H]2O)c(=S)[nH]1 [THIOGUANOSINE],> 33 µM,–
COc1cc2ncnc(Nc3cccc(Br)c3)c2cc1OC,13.2 µM,–
COc1ccc2cc1Oc1ccc(cc1)C[C@H]1c3cc(c(OC)cc3CCN1C)Oc1c(OC)c(OC)cc3c1[C@H](C2)N(C)CC3 [FANCHININ],> 33 µM,–
O=C(CCCN1CCC2(CC1)C(=O)N(Cc1cccc(F)c1)CN2c1ccccc1)c1ccc(F)cc1,27.4 µM,–
CC(C)COCC(CN(Cc1ccccc1)c1ccccc1)N1CCCC1 (configuration not stated),23.4 µM,–
COc1ccccc1[C@H](Cn1c(=O)n(C(C)(C)C(=O)O)c(=O)c2c(C)c(-c3ncco3)sc21)OC1CCOCC1 [FIRSOCOSTAT],0.11 µM,–
O=C(O)Cc1cccc(OCCCN(Cc2cccc(C(F)(F)F)c2Cl)CC(c2ccccc2)c2ccccc2)c1,> 33 µM,–
Nc1nc(NC[C@H]2CC[C@H](CNS(=O)(=O)c3cccc4ccccc34)CC2)nc2ccccc12 [CGP-71683A],4.38 µM,–
CN(C)C(=O)C(CCN1CCC(O)(c2ccc(Cl)cc2)CC1)(c1ccccc1)c1ccccc1 [LOPERAMIDE],> 33 µM,–
C#CCC(Cc1cnc2nc(N)nc(N)c2n1)c1ccc(C(=O)N[C@@H](CCC(=O)O)C(=O)O)cc1 (some centres not stated) [PRALATREXATE],–,IC50 (SARS-CoV-2; [1]): 0.06 µM
Oc1c(Cl)cc(Cl)cc1Sc1cc(Cl)cc(Cl)c1O [BITHIONOL],9.94 µM,–

SMILES,CC50 at 48 h (in vitro; [2]),other results
Nc1ncc(-c2ccnc(Nc3ccncc3)n2)c(CC2CC2)n1,2.11 µM,–
COc1c(C)c2c(c(O)c1C/C=C(\C)CCC(=O)O)C(=O)OC2 [MYCOPHENOLIC ACID],–,IC50 (SARS-CoV-2; vero c1008): 3.43 µM and 11.1 µM and > 33 µM
CC(C)N1CCN(c2ccc(C(=O)c3c(-c4ccc(O)cc4)sc4cc(O)ccc34)cc2)CC1,> 33 µM,–
COc1cc(NCc2ccc3nc(N)nc(N)c3c2C)cc(OC)c1OC [TRIMETREXATE],1.99 µM,–
Cc1ccc(C(=O)Nc2cccc(C(F)(F)F)c2)cc1Nc1nc(-c2cccnc2)nc2c1cnn2C,0.07 µM,–
CC(C)c1cnn2c(NCc3ccccc3)cc(NCCCCCCN)nc12,> 33 µM,–
Nc1ccc2cc3ccc(N)cc3nc2c1 [PROFLAVINE],2.67 µM,–
CC(C)(C)NCc1ccc(Nc2ccnc3cc(Cl)ccc23)cc1O [GSK-369796],12.4 µM,–
Cc1c(O)cccc1C(=O)N[C@@H](CSc1ccccc1)[C@H](O)CN1C[C@H]2CCCC[C@H]2C[C@H]1C(=O)NC(C)(C)C [NELFINAVIR MESYLATE],> 33 µM,–
c1cncc(CN2CCC(n3ncc4c(N5CCOCC5)nc(-c5ccc6[nH]ccc6c5)nc43)CC2)c1,9.55 µM,–
CC(C)C(=O)OCC(=O)[C@@]12O[C@H](C3CCCCC3)O[C@@H]1C[C@H]1[C@@H]3CCC4=CC(=O)C=C[C@]4(C)[C@H]3[C@@H](O)C[C@@]12C [CICLESONIDE],–,IC50 (SARS-CoV-2; [1]): > 33 µM
O=C1C(=Cc2cccnc2)C(=O)c2ccccc21,–,IC50 (SARS-CoV-2; [1]): > 33 µM
CC[C@@]1([C@H]2O[C@H]([C@H]3O[C@@](O)(CO)[C@H](C)C[C@@H]3C)C[C@H]2C)CC[C@H]([C@@]2(C)CC[C@]3(C[C@H](O)[C@@H](C)[C@@H]([C@H](C)[C@H](OC)[C@@H](C)C(=O)O)O3)O2)O1 [MONENSIN SODIUM],–,IC50 (SARS-CoV-2; [1]): 3.18 µM
C[C@H]1CCC/C=C/[C@@H]2C[C@H](O)C[C@H]2[C@H](O)/C=C/C(=O)O1 [BREFELDIN A],0.06 µM,–
CCN1CCC(n2cc(CNc3cc(Cl)c4ncc(C#N)c(Nc5ccc(F)c(Cl)c5)c4c3)nn2)CC1,–,IC50 (SARS-CoV-2; [1]): 16.6 µM
CCN(CC)CCO[C@H]1CC[C@@]2(C)C(=CC[C@@H]3[C@@H]2CC[C@]2(C)C(=O)CC[C@@H]32)C1,3.43 µM,–
C[C@@H]1C[C@@H]([C@H](O)CC2CC(=O)NC(=O)C2)C(=O)[C@@H](C)C1 [CYCLOHEXIMIDE],10.2 µM,–
O=C(NCCN1CCC2(CC1)C(=O)NCN2c1cccc(F)c1)c1ccc2ccccc2c1,> 33 µM,–
OCCNC1CCCc2c1[nH]c1ccc(-c3ccccc3)cc21 (configuration not stated),> 33 µM,–
Cn1c(Nc2ccc(C(F)(F)F)cc2)nc2cc(Oc3ccnc(-c4ncc(C(F)(F)F)[nH]4)c3)ccc21 [RAF-265],9.19 µM,–
O=C1Nc2cc(Br)ccc2/C1=C1/Nc2ccccc2/C1=N\O [6BIO],> 33 µM,–
Cc1ccc(NC(=O)c2ccc(CN3CCN(C)CC3)cc2)cc1Nc1nc(-c2cccnc2)cs1 [MASITINIB],> 33 µM,–
Nc1nc(N)c2nc(CNc3ccc(C(=O)N[C@@H](CCC(=O)O)C(=O)O)cc3)cnc2n1 [AMINOPTERIN],0.03 µM,–
Nc1ncnc2c1ncn2[C@@H]1CC[C@@H](O)[C@H]1O,15.7 µM,–
